Paper PMC6218659, “Structures of DPAGT1 Explain Glycosylation Disease Mechanisms and Advance TB Antibiotic Design” (Cell, 2018)
Values after ≈ are worked out from the molar mass of the structure shown. Where two headings read alike, the source gives them in different places.

What was measured:
[1] = biological target: T1, DPAGT1 (Homo sapiens, UniProt Q9H3H5); assay: Radiolabeled substrate enzyme activity assay; assay type: biochemical, H. sapiens; details: purified DPAGT1 enzyme, Figure 6F
T1 construct: H. sapiens DPAGT1 (1-408, N-terminal 6 x HIS tag, TEV cleavage site); 6xHis purification tag with TEV site (N, cleaved yes); made in house; host or cells: Spodoptera frugiperda Sf9 insect cells (baculovirus)
T1 sequence (Q9H3H5 1-408): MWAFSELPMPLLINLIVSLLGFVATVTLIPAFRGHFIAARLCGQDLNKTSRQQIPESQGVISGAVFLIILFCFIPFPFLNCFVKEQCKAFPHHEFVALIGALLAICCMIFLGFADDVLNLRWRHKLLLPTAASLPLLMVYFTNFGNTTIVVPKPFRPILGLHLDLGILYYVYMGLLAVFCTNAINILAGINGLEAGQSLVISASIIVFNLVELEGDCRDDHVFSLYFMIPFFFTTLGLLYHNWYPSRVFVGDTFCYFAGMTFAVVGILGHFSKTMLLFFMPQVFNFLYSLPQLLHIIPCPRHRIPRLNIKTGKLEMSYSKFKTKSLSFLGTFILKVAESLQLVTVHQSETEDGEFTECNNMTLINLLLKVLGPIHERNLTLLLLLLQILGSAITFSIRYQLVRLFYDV
Procedure: 2 μl of 2 μM DPAGT1 WT or mutant proteins in GFB buffer supplemented with 5mM extra MgCl2, 1% OGNG/CHS/cardiolipin and dolichyl monophosphate was combined with 2 μl of UDP-N-acetyl [1-14C] […] The reaction was terminated by the addition of 6 μl of 100% methanol and immediately transferred onto ice. 1 μl of sample was spotted onto a silica coated TLC plate in triplicate and run with a mobile phase consisting of chloroform, methanol, and water at a 65:25:4 ratio respectively. After the run, the TLC plate was dried thoroughly, wrapped in cling film, incubated with a phosphor imaging substrate for 4 days, then phosphor imaged using a Biorad. The pixel density of the spots corresponding to the hydrophobic product was divided by combined pixel density of the product and the substrate and multiplied by the known concentration of substrate added to ascertain the amount of product formed.

[2] = system: B. subtilis EC1524; assay: Micro-broth dilution and drop plate antimicrobial susceptibility test; assay type: cell-based, Bacillus subtilis; details: for Relative Therapeutic Index (RTI), B. subtilis EC1524: minimal lethal dose / MIC, 800 μg mL-1 used for >400
Procedure: (§1) In a sterile 96-well plate, serial dilutions were made with the test substance to final volume of 50 μl. Inoculum was then prepared in Mueller-Hinton broth to 0.5 McFarland and diluted before adding 50 μl to the well to make ∼1x10^5 CFU/ml. The culture plate was incubated at 35 °C for 20-24 hrs. A positive growth control and sterility wells were also prepared along with the culture wells. Absorbance at OD600 was taken using BMG Labtech SPECTROstar Omega spectrophotometer. MIC is determined by the lowest concentration without growth. IC50 is determined from plotting a dose-response curve, see Data Analysis below. To determine the MBC, using a multi-channel pipette, 1 μl of culture broth was taken from the same 96-well microdilution growth plate and carefully inoculated on surface of MH agar plate. The plate is then incubated for additional 20 hrs. at 35 °C. The MBC value is the lowest concentration without observed growth on the agar.

[3] = system: B. cereus ATCC11778; assay: as above; assay type: cell-based, Bacillus cereus; details: for IC50 / MBC / MIC: Bacillus cereus; for Relative Therapeutic Index (RTI), B. cereus NRRL 11778: minimal lethal dose / MIC, 800 μg mL-1 used for >400
Procedure: as §1

[4] = system: E. coli ATCC25922; assay: as above; assay type: cell-based; details: Escherichia coli
Procedure: as §1

[5] = system: P. aeruginosa ATCC27853; assay: as above; assay type: cell-based; details: Pseudomonas aeruginosa
Procedure: as §1

[6] = system: S. aureus ATCC29219; assay: as above; assay type: cell-based; details: Staphylococcus aureus
Procedure: as §1

[7] = system: Mtb H37Rv ATCC27294; assay: Minimum inhibitory concentrations testing against Mtb; assay type: cell-based, Mycobacterium tuberculosis; details: for MIC: Mycobacterium tuberculosis, 168 h; for Relative Therapeutic Index (RTI), Mtb H37RV a / Relative Therapeutic Index (RTI), Mtb H37RV b: minimal lethal dose / MIC, 800 μg mL-1 used for >400; for Relative Therapeutic Index (RTI), Mtb H37RV a: 7H9/ADC/Tw; for Relative Therapeutic Index (RTI), Mtb H37RV b: GAST/Fe
[8] = system: HEK293 cells; assay: Cell proliferation assay (MTS); assay type: cell-based, human; details: for LD50 values, HEK293: MTS cell proliferation assay, 24 hrs, highest concentration 400 µg mL-1; for Minimal Lethal Dose, HEK 293: serial 2-fold dilutions (Table S6)
Procedure: (§2) In sterile 96-well plate, each well was seeded with ∼1x10^5 cells. The cells are then grown confluent overnight in 100 μl DMEM with 10% FBS. The medium is replenished with DMEM with 2% FBS and added vehicle control or test substance the next day. For test substance in methanol, stock was added to 25 μl of DMEM with 2% FBS or PBS and placed in the laminar flow hood to let the methanol evaporate (about 1-3 hrs). Once the methanol has evaporated, DMEM with 2% FBS was added to final volume of 100 μl of desired test concentration. […] Cells are grown for additional 24 hrs. The cell viability was determined by using Promega CellTiter 96^© AQueous One Solution Cell Proliferation Assay (3-(4,5-dimethylthiazol-2-yl)-5-(3-carboxymethoxyphenyl)-2-(4-sulfophenyl)-2H-tetrazolium, inner salt; MTS) System following the manufacture protocol.

[9] = system: HepG2 cells; assay: Cell proliferation assay (MTS); assay type: cell-based, human; details: for LD50 values, HepG2: MTS cell proliferation assay, 24 hrs, highest concentration 400 µg mL-1; for Minimal Lethal Dose, HepG2: serial 2-fold dilutions (Table S6)
Procedure: as §2

[10] = system: Raji cells; assay: Cell proliferation assay (MTS); assay type: cell-based, human; details: 24 hrs
Procedure: as §2

[11] = system: Mtb-infected J774A.1 macrophages; assay: Efficacy against Mtb growing in infected macrophages; details: J774A.1 macrophages treated 3 or 7 days
[12] = Bacillus subtilis, EC1524, read-out: Minimal Inhibitory Concentration, B. subtilis EC1524
[13] = ATCC 11778 / NRRL11778, read-out: Minimal Inhibitory Concentration, B. cereus NRRL 11778
[14] = read-out: 1-week MIC in 7H9/ADC/Tw
[15] = read-out: 1-week MIC in GAST/Fe
[16] = read-out: Minimal Inhibitory Concentration, Mtb H37RV a
[17] = read-out: Minimal Inhibitory Concentration, Mtb H37RV b

| Structure (SMILES) | IC50 ([2]; Bacillus subtilis, EC1524) | MBC ([2]; Bacillus subtilis, EC1524) | MIC ([2]; Bacillus subtilis, EC1524) | MIC [2, 12] | Relative Therapeutic Index (RTI), B. subtilis EC1524 [2] | IC50 ([3]; ATCC11778) | MBC ([3]; ATCC11778) | MIC ([3]; ATCC11778) | MIC [3, 13] | Relative Therapeutic Index (RTI), B. cereus NRRL 11778 [3] | IC50 [4] | MBC [4] | MIC [4] | IC50 [5] | MBC [5] | MIC [5] | IC50 [6] | MBC [6] | MIC [6] | MIC [7, 14] | other results |
| --- | --- | --- | --- | --- | --- | --- | --- | --- | --- | --- | --- | --- | --- | --- | --- | --- | --- | --- | --- | --- | --- |
| CCCCCCCCC(=O)N[C@H]1[C@H](O[C@H]2O[C@H](CO)[C@@H](O)[C@H](O)[C@H]2NC(=O)CCCCCCCC)O[C@H](C[C@@H](O)[C@H]2O[C@@H](n3ccc(=O)[nH]c3=O)[C@H](O)[C@@H]2O)[C@H](O)[C@@H]1O [TUN-9,9, Di-N-nonanoyl-tunicamycin] | 0.015 µg/mL (≈ 0.0177 µM) | > 0.05 µg/mL | 0.02 ± 0.01 µg/mL (≈ 0.0236 µM) | 0.024 µg/mL (≈ 0.0283 µM) | 33300 | 0.072 µg/mL (≈ 0.085 µM) | > 25 µg/mL | 0.65 ± 0.23 µg/mL (≈ 0.767 µM) | 0.78 µg/mL (≈ 0.921 µM) | 1026 | 87.1 µg/mL (≈ 103 µM) | 400 µg/mL (≈ 472 µM) | 330 ± 120 µg/mL (≈ 390 µM) | 55 µg/mL (≈ 64.9 µM) | 400 µg/mL (≈ 472 µM) | 83 ± 29 µg/mL (≈ 98 µM) | 48.9 µg/mL (≈ 57.8 µM) | 400 µg/mL (≈ 472 µM) | 83 ± 29 µg/mL (≈ 98 µM) | 0.2 ± 0.02 µg/mL (≈ 0.236 µM) | effect on DPAGT1 catalytic activity [1]: negligible effect; MIC ([2]; B. subtilis, micro-broth dilution, mean ± SEM (n=3)): 0.02 ± 0.01 µg/mL (≈ 0.0236 µM); 1-week MIC in GAST/Fe ([7]; Mtb H37Rv, minimal growth medium): 0.03 ± 0.001 µg/mL; potency (MIC) relative to tunicamycin ([7]; Mtb H37Rv, more potent than tunicamycin): ~5 fold; MIC [7, 15]: 0.03 ± 0.001 µg/mL (≈ 0.0354 µM); MIC [7, 16]: 0.2 µg/mL (≈ 0.236 µM); MIC [7, 17]: 0.03 µg/mL (≈ 0.0354 µM); Relative Therapeutic Index (RTI), Mtb H37RV a [7]: 4000; Relative Therapeutic Index (RTI), Mtb H37RV b [7]: 27000; LD50 values, HEK293 [8]: N/A (N/A = not available. No or low cytotoxicity observed at highest, saturating concentration tested (400 µg mL-1)); Minimal Lethal Dose, HEK 293 [8]: > 400 µg/mL; LD50 values, HepG2 [9]: N/A (N/A = not available. No or low cytotoxicity observed at highest, saturating concentration tested (400 µg mL-1)); Minimal Lethal Dose, HepG2 [9]: > 400 µg/mL; LD50 values, Raji [10]: 355.57 ± 194.57 µg/mL; reduction of intracellular bacterial burdens ([11]; 1 × MIC): 1 logs; reduction of intracellular bacterial burdens ([11]; 10 × MIC): 2 logs |
| CCCCCCCCCCC(=O)N[C@H]1[C@H](O[C@H]2O[C@H](CO)[C@@H](O)[C@H](O)[C@H]2NC(=O)CCCCCCCCCC)O[C@H](C[C@@H](O)[C@H]2O[C@@H](n3ccc(=O)[nH]c3=O)[C@H](O)[C@@H]2O)[C@H](O)[C@@H]1O [TUN-11,11, Di-N-undecanoyl-tunicamycin] | 0.85 ± 0.28 µg/mL (≈ 0.941 µM) | > 1.56 µg/mL | 1.3 ± 0.45 µg/mL (≈ 1.44 µM) | 1.56 µg/mL (≈ 1.73 µM) | 513 | 0.088 µg/mL (≈ 0.0974 µM) | > 25 µg/mL | 0.65 ± 0.23 µg/mL (≈ 0.72 µM) | 0.78 µg/mL (≈ 0.864 µM) | 1026 | 131 µg/mL (≈ 145 µM) | 400 µg/mL (≈ 443 µM) | 330 ± 120 µg/mL (≈ 365 µM) | 63.2 µg/mL (≈ 69.9 µM) | 400 µg/mL (≈ 443 µM) | 83 ± 29 µg/mL (≈ 91.9 µM) | 58 µg/mL (≈ 64.3 µM) | 400 µg/mL (≈ 443 µM) | 170 ± 60 µg/mL (≈ 188 µM) | 4.1 ± 2.2 µg/mL (≈ 4.54 µM) | MIC [7, 15]: 1.6 ± 1.6 µg/mL (≈ 1.77 µM); MIC [7, 16]: 4.1 µg/mL (≈ 4.54 µM); MIC [7, 17]: 1.6 µg/mL (≈ 1.77 µM); Relative Therapeutic Index (RTI), Mtb H37RV a [7]: 195; Relative Therapeutic Index (RTI), Mtb H37RV b [7]: 500; LD50 values, HEK293 [8]: N/A (N/A = not available. No or low cytotoxicity observed at highest, saturating concentration tested (400 µg mL-1)); Minimal Lethal Dose, HEK 293 [8]: > 400 µg/mL; LD50 values, HepG2 [9]: N/A (N/A = not available. No or low cytotoxicity observed at highest, saturating concentration tested (400 µg mL-1)); Minimal Lethal Dose, HepG2 [9]: > 400 µg/mL; LD50 values, Raji [10]: 103.65 ± 34.34 µg/mL; reduction of intracellular bacterial burdens ([11]; 1 × MIC): 1 logs; reduction of intracellular bacterial burdens ([11]; 10 × MIC): 2 logs |
